Measured values taken from US20070254952A1, “CANNABINOID RECEPTOR MODULATORS” (priority 2006, published 2007).

What was measured:
[1] = target: T1, CB1 receptor (Homo sapiens, UniProt P21554); assay: Competition binding assay for cannabinoid CB1 affinity (3H-CP55,940 displacement, membranes); conditions: membranes from cells expressing the receptor, 0.5 nM 3H-CP55,940; Ki by Cheng and Prusoff
T1 construct: purchased
Protocol: (§1) Competition binding assays for cannabinoid CB1 and CB2 affinity were performed by incubating commercially purchased membranes prepared from cells expressing each receptor subtype (8 μg pro) with 0.5 nM ^3H-CP55,940, a non-selective cannabinoid agonist, along with concentrations of drug ranging from 0.0001-3 μM in Buffer A (5 mM MgCl2, 2.5 mM EDTA and […] BSA). Non-specific binding was defined in the presence of 10 μM CP55,940. For saturation studies, concentrations of ^3H-CP55,940 ranging from 0.1-5 nM were incubated with membranes in the presence and absence of 10 μM CP55,940. Assays were terminated after incubation for 1½ hours by rapid filtration onto 0.3% polyethylenamine treated GF/C filterplates using a BRANDEL cell harvester. The plates were dried and MICROSCINT scintillation cocktail was added, after which the bound radioactivity was quantified using a TOPCOUNT scintillation counter.
(§2) The dissociation constant (Kd) of ^3H-CP55,940 at the CB1 and CB2 receptor were determined by plotting specific binding at each concentration of radioligand, and analysis by non-linear regression. For competition studies, the concentration of each drug that inhibited 50 percent of ^3H-CP55,940 binding (IC50) was determined by non-linear regression analysis of the radioligand displacement curves. Affinity constants (Ki) were calculated using the equation derived by Cheng and Prusoff (1973), defined as: IC50/1+[conc. ligand/Kd].

[2] = target: T2, CB2 receptor (Homo sapiens, UniProt P34972); assay: Competition binding assay for cannabinoid CB2 affinity (3H-CP55,940 displacement, membranes); conditions: membranes from cells expressing the receptor, 0.5 nM 3H-CP55,940; Ki by Cheng and Prusoff
T2 construct: purchased
T2 sequence (P34972 whole entry): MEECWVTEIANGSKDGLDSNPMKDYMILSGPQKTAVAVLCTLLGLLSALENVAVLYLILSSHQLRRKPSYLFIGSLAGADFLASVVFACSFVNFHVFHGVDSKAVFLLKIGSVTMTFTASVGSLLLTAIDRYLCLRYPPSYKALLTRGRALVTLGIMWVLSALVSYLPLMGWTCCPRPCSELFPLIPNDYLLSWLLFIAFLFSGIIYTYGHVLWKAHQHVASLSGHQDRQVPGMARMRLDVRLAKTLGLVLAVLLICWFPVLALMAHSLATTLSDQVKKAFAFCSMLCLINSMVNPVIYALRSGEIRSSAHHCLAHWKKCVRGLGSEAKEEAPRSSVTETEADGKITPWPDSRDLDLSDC
Protocol: as §1, §2

T1 sequence (P21554 whole entry): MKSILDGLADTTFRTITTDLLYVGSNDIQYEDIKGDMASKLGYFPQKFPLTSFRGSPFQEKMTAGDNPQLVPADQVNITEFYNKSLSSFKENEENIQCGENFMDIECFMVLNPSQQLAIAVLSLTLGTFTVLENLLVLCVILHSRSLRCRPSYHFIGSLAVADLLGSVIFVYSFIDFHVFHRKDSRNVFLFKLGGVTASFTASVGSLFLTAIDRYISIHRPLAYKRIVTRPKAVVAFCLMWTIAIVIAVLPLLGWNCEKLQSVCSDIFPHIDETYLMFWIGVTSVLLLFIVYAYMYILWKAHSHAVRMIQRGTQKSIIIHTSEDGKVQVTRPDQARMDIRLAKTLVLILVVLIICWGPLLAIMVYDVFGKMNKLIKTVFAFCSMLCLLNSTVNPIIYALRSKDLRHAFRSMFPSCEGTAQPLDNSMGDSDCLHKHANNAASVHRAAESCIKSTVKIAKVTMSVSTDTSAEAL

| Compound | Ki [1] | Ki [2] |
| --- | --- | --- |
| N#Cc1ccc(NC[C@H]2C[C@H](c3ccc(Cl)cc3)[C@H](c3ccc(Cl)cc3Cl)C2)cc1 [Compound 16] | > 1500 nM | > 1500 nM |
| Fc1ccc(OC[C@@H]2C[C@H](c3ccc(Cl)cc3)[C@H](c3ccc(Cl)cc3Cl)C2)cc1F [Compound 17] | 12.5 nM | > 1800 nM |
| N#Cc1ccc(CNC[C@@H]2C[C@H](c3ccc(Cl)cc3)[C@H](c3ccc(Cl)cc3Cl)C2)cc1 [Compound 14] | 12.7 nM | > 1800 nM |
| N#Cc1ccc(OC[C@@H]2C[C@H](c3ccc(Cl)cc3)[C@H](c3ccc(Cl)cc3Cl)C2)cc1 [Compound 18] | 1.86 nM | > 1500 nM |
| N#Cc1ccc(NC[C@@H]2C[C@H](c3ccc(Cl)cc3)[C@H](c3ccc(Cl)cc3Cl)C2)cc1 [Compound 15] | 1 nM | > 1500 nM |
